Patent US20110110886A1, “SMALL MOLECULE INHIBITORS OF AUTOTAXIN AND METHODS OF USE” (Yale University, priority 2008, published 2011)
“And” between values parts separate entries of the source, which are not always exact repeats. Equal entries are not always repeated. Where two headings read alike, the source gives them in different places.

How the values were obtained:
[1] = target: T1, ATX (recombinant full-length human ATX), PDE activity (Homo sapiens, UniProt Q13822); assay: Steady-state ATX phosphodiesterase (PDE) activity with pNP-TMP, absorbance 405 nm; type: biochemical; conditions: for Ki: 25° C., read-out: KI (dissociation equilibrium constant for inhibitor binding), ATX PDE activity
T1 construct: consistent with a mature, glycosylated form of the enzyme; TEV cleavage site (C); 9-His (C); 6-His (C); made in house; host or cells: High Five insect cells (baculovirus, p-DEST-8)
Description: Protein expression and purification: The full length human NPP2 gene (NCBI accession #BC034961) followed by a C-terminal TEV cleavage site and a 9-His and 6-His purification tag was cloned and transferred into a p-DEST-8 baculovirus shuttle vector (Invitrogen), and bacmid DNA was generated by standard methods. The DNA sequence and correct transposition of the genes was verified by PCR, and recombinant full-length human ATX was expressed in High Five insect cells using standard methods. Three days post infection, the supernatant was adjusted to a final concentration of 50 mM Tris pH 8.0, 5 mM CaCl2, and 1 mM NiSO4 and stirred for 10 min. at room temperature. The resulting precipitant was removed by centrifugation (4,420×g for 30 minutes) and filtration ([…]), and the supernatant was concentrated using a Pall concentration system to approximately 250 mL. The cell media was passed over a nickel affinity column (5 mL, Fastflow resin), equilibrated in binding buffer (20 mM Tris pH 8.0, 300 mM NaCl, 20 mM imidazole, and 20% ethylene glycol) at 4° C., washed with 10 column volumes of binding buffer, and then eluted with binding buffer supplemented with 300 mM imidazole. Purified ATX was concentrated to approximately 10 mg mL^−1, and dialyzed into the appropriate assay buffer.
Steady-state enzyme assays: Phosphodiesterase activity of ATX (75-100 nM) was measured by absorbance (λ=405 nm) on a SpectraMax 250 plate reader at 25° C. with the substrate pNP-TMP [36]. Reactions were run in assay buffer containing 10% DMSO (v/v) and 1 mg mL^−1 BSA (hexachlorophene, merbromin, and bithionol) or without BSA (NSC 48300, 2,2′-Methylenebis(4-chlorophenol), eosin Y, and RJC 03297) in a total volume of […]. The uncatalyzed reaction rate was ≦10^−7 s^−1 (data not shown).
The steady-state rates (v) of product formation were obtained by fitting the time courses of absorbance or fluorescence change to linear functions. Absorbance units were converted to p-nitrophenylate concentration using ε405 of 18.5 mM^−1 cm^−1 [39] and a measured path length of 0.494 cm. FS-3 hydrolysis product formation was quantitated in arbitrary fluorescence units.
(§1) The Michaelis constants (KM) and the catalytic turnover rate constants (kcat) were obtained by fitting the [substrate]-dependence of v to a rectangular hyperbola in the form of the Briggs-Haldane equation: […]
(§2) in which [S] is [pNP-TMP] or [FS-3]. Inhibitors were treated as reversible inhibitors and analyzed according to the general steady-state linear enzyme inhibitor scheme:
(§3) in which E is ATX, S is pNP-TMP or FS-3 substrate, P are the hydrolysis products, and K1 is the dissociation equilibrium constant for inhibitor binding. The values of α and K1 were obtained by fitting the steady-state rates of product formation (v) to the general inhibition equation: […]
(§4) in which [I] is the inhibitor concentration, kcat is the maximum catalytic turnover rate, and KS is the Michaelis constant of the substrate obtained in the absence of inhibitor.
(§5) The type of inhibition (competitive, noncompetitive, or uncompetitive) depends on the value of α.
(§6) The type of inhibition was assigned if the difference between the r^2 values of the fits to the general inhibition equation (Eq 2) and the specific inhibition (i.e. competitive, noncompetitive or uncompetitive) equations was less than 0.01.

[2] = target: T2, ATX (recombinant full-length human ATX), lysoPLD activity (Homo sapiens, UniProt Q13822); assay: Steady-state ATX lysoPLD activity with fluorescent LPC analogue FS-3; type: biochemical; conditions: for inhibition of ATX lysoPLD activity by GenPlus screen inhibitor analogs / type of inhibition of ATX lysoPLD activity: substrate FS-3; for Ki: substrate FS-3, 37° C.
T2 construct: consistent with a mature, glycosylated form of the enzyme; TEV cleavage site (C); 9-His (C); 6-His (C); made in house; host or cells: High Five insect cells (baculovirus, p-DEST-8)
Method: Protein expression and purification: The full length human NPP2 gene (NCBI accession #BC034961) followed by a C-terminal TEV cleavage site and a 9-His and 6-His purification tag was cloned and transferred into a p-DEST-8 baculovirus shuttle vector (Invitrogen), and bacmid DNA was generated by standard methods. […] Three days post infection, the supernatant was adjusted to a final concentration of 50 mM Tris pH 8.0, 5 mM CaCl2, and 1 mM NiSO4 and stirred for 10 min. at room temperature. […] Purified ATX was concentrated to approximately 10 mg mL^−1, and dialyzed into the appropriate assay buffer.
Fluorescence was measured (λex=485 nm, λem=520 nm) on a SpectraMax Gemini XPS at 37° C. under buffer conditions similar to the PDE assays but lacking BSA. […] The spontaneous reaction rates were subtracted from the enzyme catalyzed rates.
The steady-state rates (v) of product formation were obtained by fitting the time courses of absorbance or fluorescence change to linear functions. […] FS-3 hydrolysis product formation was quantitated in arbitrary fluorescence units.
as §1, §2, §3, §4, §5, §6

[3] = system: adenocarcinoma cell motility; conditions: reported in ref. [40]; read-out: EC50, inhibition of adenocarcinoma cell motility; cited from earlier work
[4] = system: human melanoma cell line (A2058); assay: Boyden chamber cell migration assay, melanoma cells; type: cell-based; conditions: for inhibition of ATX-induced stimulation of melanoma cell motility: A2058, 50 nM ATX, 4 hours
Method: (§7) All cell media was supplemented with 10% (v/v) fetal calf serum (FCS) (Gibco) and 1% (v/v) L-glutamine (Gibco) and grown at 37° C. in a humidified atmosphere containing 5% CO2.
The assay chambers are divided by a gelatin-coated membrane with […] pores (NeuroProbe). […] The chambers were then incubated at 37° C. for 4 hours, after which the filters were removed, fixed in 100% methanol, stained with a DiffQuick solution, and mounted onto glass slides. Non-migrating cells were removed from the membrane by scraping the top surface. The cells were quantitated by counting the cell number per high powered field in the various wells. Treatments were compared using a chi squared test.

A2058 melanoma cells = assay: Matrigel cell invasion assay, melanoma cells; type: cell-based, human; conditions: for inhibition of ATX-induced stimulation of melanoma cell invasion: A2058, 50 nM ATX
Method: as §7
Cell invasion assays: Matrigel matrix (1 mg/ml, Becton Dickenson) was added to […] gelatin-coated membranes placed in cell culture inserts (BD Falcon) and allowed to set for 24 hours at room temperature. The inserts were placed into companion 24 well plates (BD Falcon), and chemo-attractants (ATX ±inhibitors) and/or controls were added to the bottom of the wells. Cells (1×10^6) were added to the inserts and incubated for 3 hours at 37° C. Following incubation, the inserts were removed, fixed in 100% methanol, stained with DiffQuick solution, and mounted on glass slides. Non-invading cells were removed by scraping away the matrigel, and migrating cells were quantitated by counting cell number per high-powered field.

ATX lyso-PLD activity = target: T3, ATX lyso-PLD activity (Homo sapiens, UniProt Q13822); assay: Time course assay of ATX lyso-PLD activity (FS-3 fluorescent product) with or without 10 μM compound over 30 minutes; type: biochemical; conditions: 10 μM inhibitor, 30 minute interval, compared with NSC 48300
T3 construct: consistent with a mature, glycosylated form of the enzyme; TEV cleavage site (C); 9-His (C); 6-His (C); made in house; host or cells: High Five insect cells (baculovirus, p-DEST-8)
Method: C. Structure of hexachlorophene, merbromin. Bithionol and their analogs -2,2′-Methylenebis(4-chlorophenol), Eosin Y and RJC 03297, respectively. D. Structure of NSC 48300 and its analogs. […] The assay conditions are 300 nM ATX in the presence or absence of 10 μM compound over 30 minutes.
Inhibitor screen: High throughput screens were performed against two libraries: the GenPlus library of 960 compounds (NINDS Custom Collection, MicroSource Discovery systems) and the NCI Diversity Set (1990 compounds, see http://dtp.nci.nih.gov/branches/dscb/repo_open.html). The screens were performed at the Yale Center for Chemical Genomics utilizing a Tecan Aquarius robot in combination with an Aquarius liquid handler and a Freedom EVO Workstation. A V&P Scientific 384 pin tool transferred small molecules (10 mM stock) from library plates into the optically clear, 384 well assay plates, and an Aquarius liquid handling robot transferred protein into the individual wells. The assays were performed in a total volume of 50 μL in assay buffer (50 mM Tris, 140 mM NaCl, 1 mM MgCl2, and 5 mM CaCl2, pH 8.0). Absorbance of p-nitrophenylate, the product of ATX's PDE activity with pNP-TMP (discussed below) was measured at 405 nm over a period of 12 hours. To monitor lysophospholipase-D activity, the fluorescence of FS-3 (625 nM or 4 μM) was monitored (λex=480 nm, λem=535 nm) in assay buffer over a period of 30 minutes in the presence of 300 nM ATX and 10 μM compound. The assay was evaluated using a statistical Z′ analysis, a quantitative measure to determine assay robustness for single point analysis on a high throughput screening platform. The Z′ analysis was performed from 32 maximum control values (c+) and 32 minimum controls (c−) on each plate. Assays consistently performed with Z′ factors of 0.75-0.85, higher than the minimum 0.5 considered robust.
Inhibition of ATX lyso-PLD activity by several NSC48300 analogs was qualitatively compared in a time course assay by measuring the production of fluorescent product in the presence or absence of 10 µM inhibitor over a 30 minute interval.

[5] = ATX-dependent hydrolysis, fit to Eq. 1

Oc1ccc(Cl)cc1Cc1cc(Cl)ccc1O [2,2′-Methylenebis(4-chlorophenol)]
type of inhibition of ATX PDE activity ([1]; substrate pNP-TMP): noncompetitively | Ki ([1]; substrate pNP-TMP): 104 µM | inhibition of ATX lysoPLD activity by GenPlus screen inhibitor analogs [2]: only Eosin Y (an analogue of merbromin) inhibits ATX lysoPLD activity

Cc1ccc2c(c1)C(=O)C1(O)CCN(c3ccccc3)C1=N2 (stereo not shown) [Blebbistatin]
EC50 [3]: ~50 µM | EC50 ([4]; A2058, 75 nM LPA, read-out: EC50, inhibition of cell motility with addition of LPA): 27 µM | EC50 ([4]; A2058, in the presence of 50 nM ATX, read-out: EC50, inhibition of ATX-induced cell motility): 54 µM

O=C1OC2(c3ccccc31)c1cc(Br)c(O)c(Br)c1Oc1c2cc(Br)c(O)c1Br [Eosin Y]
type of inhibition of ATX PDE activity ([1]; substrate pNP-TMP): competitively | Ki ([1]; substrate pNP-TMP): 9.6 µM | inhibition of ATX lysoPLD activity by GenPlus screen inhibitor analogs [2]: inhibits ATX lysoPLD activity | type of inhibition of ATX lysoPLD activity [2]: noncompetitive | Ki [2]: 116 µM

Oc1c(Cl)cc(Cl)c(Cl)c1Cc1c(O)c(Cl)cc(Cl)c1Cl [Hexachlorophene]
inhibition of ATX-induced stimulation of melanoma cell invasion (A2058 melanoma cells): inhibited in a dose-dependent manner | type of inhibition of ATX PDE activity ([1]; substrate pNP-TMP): competitive inhibition | α value from general steady-state inhibition equation (Eq. 2) ([1]; substrate pNP-TMP): > 45 | Ki ([1]; substrate pNP-TMP): 15 µM | inhibition of ATX-induced stimulation of melanoma cell motility [4]: inhibited in a dose-dependent manner | type of inhibition of ATX lysoPLD activity [2]: competitive inhibitor | Ki [2]: 68 µM

O=C([O-])c1ccccc1-c1c2cc(Br)c(=O)cc-2oc2[c]([Hg+])c([O-])c(Br)cc12.[Na+].[Na+].[OH-] [Merbromin]
inhibition of ATX-induced stimulation of melanoma cell invasion (A2058 melanoma cells): inhibited in a dose-dependent manner | type of inhibition of ATX PDE activity ([1]; substrate pNP-TMP): noncompetitive inhibition | Ki ([1]; substrate pNP-TMP): 43 µM | inhibition of ATX-induced stimulation of melanoma cell motility [4]: inhibited in a dose-dependent manner

O=[As](O)(O)c1ccc(-c2ccc([As](=O)(O)O)cc2)cc1 [NSC 13792]
qualitative effect of structural change on inhibition of ATX lyso-PLD activity (ATX lyso-PLD activity): eliminates inhibition

COC(=O)c1ccc(Cc2ccc(C(=O)OC)cc2)cc1 [NSC 86629]
qualitative effect of structural change on inhibition of ATX lyso-PLD activity (ATX lyso-PLD activity): eliminates inhibition

Cc1cn([C@H]2C[C@H](O)[C@@H](COP(=O)(O)Oc3ccc([N+](=O)[O-])cc3)O2)c(=O)[nH]c1=O [pNP-TMP, p-Nitrophenyl 5′-thymidine monophosphate]
Km [1, 5]: 1400 µM | kcat for pNP-TMP hydrolysis [1, 5]: 1.6 s^−1 and 1.6 (±0.1) s^−1

Fluorescent Substrate-3 [FS-3]
Km [2, 5]: 4.5 µM

lysophosphatidic acid [LPA]
increase in number of invading cells per hpf (A2058 melanoma cells; A2058, ATX (50 nM) or LPA (75 nM)): 3.5 fold
